Key:
Type in all cases: biochemical
JAK2 = biological target: T1, JAK2 (Homo sapiens, UniProt O60674); assay: Z'-LYTE kinase assay JAK2
T1 construct: 5 μl of catalytic domain recombinant Kinase enzyme+Tyr peptide substrate (Invitrogen, CA); purchased Invitrogen
Method in brief: (§1)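 In duplicate wells, each test molecule (1% final DMSO) is incubated with recombinant kinase catalytic domain, Tyr6 peptide substrate and ATP for one hour at room temperature; a site-specific protease is then added for another hour before fluorescence reading.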

JAK3 = biological target: T2, JAK3 (Homo sapiens, UniProt P52333); assay: Z'-LYTE kinase assay JAK3
T2 construct: 5 μl of catalytic domain recombinant Kinase enzyme+Tyr peptide substrate (Invitrogen, CA); purchased Invitrogen
Method in brief: as §1

JAK1 = biological target: T3, JAK1 (Homo sapiens, UniProt P23458); assay: Z'-LYTE kinase assay JAK1
T3 construct: 5 μl of catalytic domain recombinant Kinase enzyme+Tyr peptide substrate (Invitrogen, CA); purchased Invitrogen
Method in brief: as §1

T3 sequence (P23458 875-1153 limits assumed): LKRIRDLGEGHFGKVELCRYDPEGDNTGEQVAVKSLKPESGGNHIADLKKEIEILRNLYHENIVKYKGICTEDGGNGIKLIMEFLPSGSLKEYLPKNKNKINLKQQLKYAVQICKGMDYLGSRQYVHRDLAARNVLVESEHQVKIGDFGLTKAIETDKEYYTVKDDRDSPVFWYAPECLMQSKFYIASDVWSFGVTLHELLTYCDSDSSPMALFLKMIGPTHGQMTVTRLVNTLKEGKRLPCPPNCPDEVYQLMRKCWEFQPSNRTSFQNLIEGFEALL
T1 sequence (O60674 849-1124 limits assumed): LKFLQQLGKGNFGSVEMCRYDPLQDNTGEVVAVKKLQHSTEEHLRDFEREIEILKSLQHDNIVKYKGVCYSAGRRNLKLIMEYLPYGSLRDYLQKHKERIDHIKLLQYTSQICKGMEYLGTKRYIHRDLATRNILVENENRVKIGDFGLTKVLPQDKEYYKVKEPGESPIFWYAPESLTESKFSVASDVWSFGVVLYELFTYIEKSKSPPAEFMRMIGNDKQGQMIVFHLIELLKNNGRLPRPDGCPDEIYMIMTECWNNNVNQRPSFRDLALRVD
T2 sequence (P52333 822-1111 limits assumed): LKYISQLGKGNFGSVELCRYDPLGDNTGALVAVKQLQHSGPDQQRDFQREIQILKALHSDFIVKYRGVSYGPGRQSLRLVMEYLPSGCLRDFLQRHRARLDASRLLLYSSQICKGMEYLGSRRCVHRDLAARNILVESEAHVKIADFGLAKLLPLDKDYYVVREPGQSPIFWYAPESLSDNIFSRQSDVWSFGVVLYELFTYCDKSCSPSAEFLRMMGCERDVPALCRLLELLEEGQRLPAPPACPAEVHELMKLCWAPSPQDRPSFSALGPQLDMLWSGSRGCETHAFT

| Structure (SMILES) | IC50 (JAK2) [nM] | IC50 (JAK3) [nM] | IC50 (JAK1) [nM] |
| --- | --- | --- | --- |
| CCC(=O)N1CCC(c2ccc(Nc3cc(NCc4cccc(-c5cccnc5)c4)c(C(N)=O)cn3)cc2)CC1 [Example 416, 6-(4-(1-propionylpiperidin-4-yl)phenylamino)-4-(3-(pyridine-3-yl)benzylamino)nicotinamide] | > 1000 | 1 to 10 | > 1000 |
| CS(=O)(=O)Cc1ccc(Nc2cc(NCc3cccc(-c4ccncc4)c3)c(C(N)=O)cn2)cc1 [Example 418, 6-(4-(methylsulfonylmethyl)phenylamino)-4-(3-(pyridine-4-yl)benzylamino)nicotinamide] | 100 to 1000 | 1 to 10 | 100 to 1000 |
| CN(C)C(=O)c1ccc(Nc2cc(NCc3cccc(-n4cccn4)c3)c(C(N)=O)cn2)cc1 [Example 422, 4-(3-(1H-pyrazol-1-yl)benzylamino)-6-(4-(dimethylcarbamoyl)phenylamino)nicotinamide] | 100 to 1000 | 10 to 100 | > 1000 |
| CC(=O)N1CCC[C@H](CNc2cc(Nc3ccc(F)c(C(=O)N4CCC4)c3)ncc2C(N)=O)C1 [Example 444, (R)-4-((1-acetylpiperidin-3-yl)methylamino)-6-(3-(azetidine-1-carbonyl)-4-fluorophenylamino)nicotinamide] | > 1000 | 100 to 1000 | > 1000 |
| Cc1cc(Nc2cc(NCc3cccc(F)c3F)c(C(N)=O)cn2)ccc1C(=O)N1CCC1 [Example 454, 6-(4-(azetidine-1-carbonyl)-3-methylphenylamino)-4-(2,3-difluorobenzylamino)nicotinamide] | 10 to 100 | < 1 | 100 to 1000 |
| Cc1cc(Nc2cc(NCc3cccc(F)c3F)c(C(N)=O)cn2)ccc1C(=O)N1CCOCC1 [Example 455, 4-(2,3-difluorobenzylamino)-6-(3-methyl-4-(morpholine-4-carbonyl)phenylamino)nicotinamide] | 10 to 100 | 1 to 10 | 100 to 1000 |
| Cc1cc(Nc2cc(NCc3cccc(F)c3F)c(C(N)=O)cn2)ccc1C(=O)N1CCCC1 [Example 456, 4-(2,3-difluorobenzylamino)-6-(3-methyl-4-(pyrrolidine-1-carbonyl)phenylamino)nicotinamide] | 10 to 100 | < 1 | 100 to 1000 |
| Cc1cc(Nc2cc(NCc3cccc4[nH]ccc34)c(C(N)=O)cn2)ccc1C(=O)N1CCOCC1 [Example 462, 4-((1H-indol-4-yl)methylamino)-6-(3-methyl-4-(morpholine-4-carbonyl)phenylamino)nicotinamide] | 1 to 10 | < 1 | 1 to 10 |
| Cc1cc(Nc2cc(NCc3cccc4cc[nH]c34)c(C(N)=O)cn2)ccc1C(=O)N1CCC1 [Example 463, 4-((1H-indol-7-yl)methylamino)-6-(4-(azetidine-1-carbonyl)-3-methylphenylamino)nicotinamide] | 10 to 100 | 1 to 10 | > 1000 |
| COC(=O)N(C)c1ccc(Nc2cc(NCc3cccc4ccsc34)c(C(N)=O)cn2)cc1 [Example 465, methyl 4-(4-(benzo[b]thiophen-7-ylmethylamino)-5-carbamoylpyridin-2-ylamino)phenyl(methyl)carbamate] | 100 to 1000 | 1 to 10 | > 1000 |
| CCC(=O)N(C)c1ccc(Nc2cc(NCc3cccc4ccsc34)c(C(N)=O)cn2)cc1 [Example 466, 4-(benzo[b]thiophen-7-ylmethylamino)-6-(4-(N-methylpropionamido)phenylamino)nicotinamide] | 100 to 1000 | 1 to 10 | 100 to 1000 |
| CN(C(=O)C1CC1)c1ccc(Nc2cc(NCc3cccc4ccsc34)c(C(N)=O)cn2)cc1 [Example 467, 4-(benzo[b]thiophen-7-ylmethylamino)-6-(4-(N-methylcyclopropanecarboxamido)phenylamino)nicotinamide] | 100 to 1000 | 10 to 100 | 100 to 1000 |
| CC(=O)Nc1ccc(Nc2cc(NCc3cccc4ccsc34)c(C(N)=O)cn2)cc1 [Example 471, 6-(4-acetamidophenylamino)-4-(benzo[b]thiophen-7-ylmethylamino)nicotinamide] | 10 to 100 | 1 to 10 | 10 to 100 |

More lines, now with the values ahead:

| IC50 (JAK2) [nM] | IC50 (JAK3) [nM] | IC50 (JAK1) [nM] | Structure (SMILES) |
| --- | --- | --- | --- |
| 100 to 1000 | 1 to 10 | 100 to 1000 | CN(C)S(=O)(=O)Cc1ccc(Nc2cc(NCc3cccc(-c4ccncc4)c3)c(C(N)=O)cn2)cc1 [Example 417, 6-(4-((N,N-dimethylsulfamoyl)methyl)phenylamino)-4-(3-(pyridine-4-yl)benzylamino)nicotinamide] |
| 100 to 1000 | 1 to 10 | > 1000 | CN(C)C(=O)C1CCN(c2ccc(Nc3cc(NCc4cccc(-c5ccncc5)c4)c(C(N)=O)cn3)cc2)CC1 [Example 419, 6-(4-(4-(dimethylcarbamoyl)piperidin-1-yl)phenylamino)-4-(3-(pyridine-4-yl)benzylamino)nicotinamide] |
| 100 to 1000 | 10 to 100 | > 1000 | CN(C)C(=O)c1ccc(Nc2cc(NCc3cccc(-c4ccccn4)c3)c(C(N)=O)cn2)cc1 [Example 421, 6-(4-(dimethylcarbamoyl)phenylamino)-4-(3-(pyridine-2-yl)benzylamino)nicotinamide] |
| 100 to 1000 | 10 to 100 | > 1000 | NC(=O)c1cnc(Nc2ccc(S(=O)(=O)N3CCC3)cc2)nc1NCc1ccccc1 [Example 434, 2-(4-(azetidin-1-ylsulfonyl)phenylamino)-4-(benzylamino)pyrimidine-5-carboxamide] |
| 100 to 1000 | 10 to 100 | 100 to 1000 | NC(=O)c1cnc(Nc2ccc(F)c(C(=O)N3CCC3)c2)cc1NCc1ccccc1 [Example 439, 6-(3-(azetidine-1-carbonyl)-4-fluorophenylamino)-4-(benzylamino)nicotinamide] |
| 100 to 1000 | 10 to 100 | 100 to 1000 | CN(C)C(=O)c1cc(Nc2cc(NCc3ccccc3)c(C(N)=O)cn2)ccc1N(C)C [Example 440, 4-(benzylamino)-6-(4-(dimethylamino)-3-(dimethylcarbamoyl)phenylamino)nicotinamide] |
| 100 to 1000 | 10 to 100 | > 1000 | COc1cc(Nc2cc(NC[C@H]3CCCN(C(C)=O)C3)c(C(N)=O)cn2)ccc1C(=O)N(C)C [Example 441, (R)-4-((1-acetylpiperidin-3-yl)methylamino)-6-(4-(dimethylcarbamoyl)-3-methoxyphenylamino)nicotinamide] |
| 100 to 1000 | 10 to 100 | > 1000 | CC(=O)N1CCC[C@H](CNc2cc(Nc3ccc(C(=O)N(C)C)c(Cl)c3)ncc2C(N)=O)C1 [Example 442, (R)-4-((1-acetylpiperidin-3-yl)methylamino)-6-(3-chloro-4-(dimethylcarbamoyl)phenylamino)nicotinamide] |
| 100 to 1000 | 100 to 1000 | > 1000 | CC(=O)N1CCC[C@H](CNc2cc(Nc3ccc(C(=O)N(C)C)c(N(C)C)c3)ncc2C(N)=O)C1 [Example 445, (R)-4-((1-acetylpiperidin-3-yl)methylamino)-6-(3-(dimethylamino)-4-(dimethylcarbamoyl)phenylamino)nicotinamide] |
| 10 to 100 | 1 to 10 | 100 to 1000 | Cc1cc(Nc2cc(NCc3cccc4ccsc34)c(C(N)=O)cn2)ccc1C(=O)N1CCOCC1 [Example 459, 4-(benzo[b]thiophen-7-ylmethylamino)-6-(3-methyl-4-(morpholine-4-carbonyl)phenylamino)nicotinamide] |
| 1 to 10 | < 1 | 1 to 10 | Cc1cc(Nc2cc(NCc3cccc4[nH]ccc34)c(C(N)=O)cn2)ccc1C(=O)N1CCC1 [Example 460, 4-((1H-indol-4-yl)methylamino)-6-(4-(azetidine-1-carbonyl)-3-methylphenylamino)nicotinamide] |
| 10 to 100 | 1 to 10 | 100 to 1000 | CC(=O)N(C)c1ccc(Nc2cc(NCc3cccc4ccsc34)c(C(N)=O)cn2)cc1 [Example 468, 4-(benzo[b]thiophen-7-ylmethylamino)-6-(4-(N-methylacetamido)phenylamino)nicotinamide] |
| 10 to 100 | 1 to 10 | 10 to 100 | CC(=O)N(C)c1ccc(Nc2cc(NCc3cccc4[nH]ccc34)c(C(N)=O)cn2)cc1 [Example 469, 4-((1H-indol-4-yl)methylamino)-6-(4-(N-methylacetamido)phenylamino)nicotinamide] |
| 100 to 1000 | 10 to 100 | > 1000 | CC(=O)N(C)c1ccc(Nc2cc(NCc3cccc4cc[nH]c34)c(C(N)=O)cn2)cc1 [Example 470, 4-((1H-indol-7-yl)methylamino)-6-(4-(N-methylacetamido)phenylamino)nicotinamide] |
| 10 to 100 | < 1 | 1 to 10 | CC(=O)Nc1ccc(Nc2cc(NCc3cccc4[nH]ccc34)c(C(N)=O)cn2)cc1 [Example 472, 4-((1H-indol-4-yl)methylamino)-6-(4-acetamidophenylamino)nicotinamide] |
| 100 to 1000 | 10 to 100 | 100 to 1000 | CC(=O)Nc1ccc(Nc2cc(NCc3cccc4cc[nH]c34)c(C(N)=O)cn2)cc1 [Example 473, 4-((1H-indol-7-yl)methylamino)-6-(4-acetamidophenylamino)nicotinamide] |
| 10 to 100 | 1 to 10 | 10 to 100 | COC(=O)N(C)c1ccc(Nc2cc(NCc3cccc4[nH]ccc34)c(C(N)=O)cn2)cc1 [Example 474, methyl 4-(4-((1H-indol-4-yl)methylamino)-5-carbamoylpyridin-2-ylamino)phenyl(methyl)carbamate] |
| 10 to 100 | 1 to 10 | 10 to 100 | CCC(=O)N(C)c1ccc(Nc2cc(NCc3cccc4[nH]ccc34)c(C(N)=O)cn2)cc1 [Example 475, 4-((1H-indol-4-yl)methylamino)-6-(4-(N-methylpropionamido)phenylamino)nicotinamide] |
